In patent US8486991B2, “Enantiomerically pure phosphoindoles as HIV inhibitors” (Idenix Pharmaceuticals, Inc., priority 2006, dated 2013):
Like-named read-outs stand apart in the source and are kept apart here.

How the values were obtained:
[1] = molecular target: T1, human DNA polymerase alpha (Homo sapiens, UniProt P09884); assay: Human cellular DNA polymerase alpha assay; format: biochemical
T1 sequence (P09884 1-1462): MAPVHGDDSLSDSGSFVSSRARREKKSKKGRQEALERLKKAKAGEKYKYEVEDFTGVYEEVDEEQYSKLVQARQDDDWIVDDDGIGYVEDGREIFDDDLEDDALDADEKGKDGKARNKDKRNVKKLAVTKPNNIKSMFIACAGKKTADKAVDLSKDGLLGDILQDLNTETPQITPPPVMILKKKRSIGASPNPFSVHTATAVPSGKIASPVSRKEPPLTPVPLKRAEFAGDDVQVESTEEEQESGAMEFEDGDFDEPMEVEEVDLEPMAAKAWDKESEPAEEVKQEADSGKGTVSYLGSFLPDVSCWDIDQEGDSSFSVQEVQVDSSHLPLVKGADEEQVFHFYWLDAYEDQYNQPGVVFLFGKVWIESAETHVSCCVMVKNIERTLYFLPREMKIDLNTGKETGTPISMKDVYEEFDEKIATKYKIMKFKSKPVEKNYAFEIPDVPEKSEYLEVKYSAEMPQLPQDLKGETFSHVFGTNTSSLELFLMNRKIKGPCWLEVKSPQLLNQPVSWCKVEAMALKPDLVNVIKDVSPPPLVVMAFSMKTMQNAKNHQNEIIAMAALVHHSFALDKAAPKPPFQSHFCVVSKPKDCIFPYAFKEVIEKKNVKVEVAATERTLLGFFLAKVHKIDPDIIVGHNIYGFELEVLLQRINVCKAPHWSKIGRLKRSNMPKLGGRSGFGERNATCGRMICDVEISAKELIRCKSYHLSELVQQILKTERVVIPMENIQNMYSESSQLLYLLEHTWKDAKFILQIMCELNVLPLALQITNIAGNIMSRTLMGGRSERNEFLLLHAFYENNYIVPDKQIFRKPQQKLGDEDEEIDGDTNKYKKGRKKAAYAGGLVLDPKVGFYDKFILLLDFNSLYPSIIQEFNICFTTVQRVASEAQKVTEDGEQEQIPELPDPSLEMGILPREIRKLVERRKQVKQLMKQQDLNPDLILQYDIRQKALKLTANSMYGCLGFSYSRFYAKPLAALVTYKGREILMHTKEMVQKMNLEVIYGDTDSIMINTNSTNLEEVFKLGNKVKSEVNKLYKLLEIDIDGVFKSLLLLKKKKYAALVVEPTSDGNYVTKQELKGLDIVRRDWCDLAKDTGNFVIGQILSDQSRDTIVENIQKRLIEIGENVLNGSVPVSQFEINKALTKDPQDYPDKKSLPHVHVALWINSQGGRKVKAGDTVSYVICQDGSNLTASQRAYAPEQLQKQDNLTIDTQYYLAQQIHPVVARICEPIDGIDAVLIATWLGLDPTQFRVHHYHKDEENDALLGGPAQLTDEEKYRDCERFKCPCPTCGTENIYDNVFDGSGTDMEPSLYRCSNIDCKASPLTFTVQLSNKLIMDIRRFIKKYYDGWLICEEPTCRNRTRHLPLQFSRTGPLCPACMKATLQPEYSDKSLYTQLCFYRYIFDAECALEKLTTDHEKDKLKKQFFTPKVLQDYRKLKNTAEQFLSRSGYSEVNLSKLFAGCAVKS
Text: HIV RT, like other viral polymerase, shares limited structural homology with the cellular DNA polymerases responsible for normal nuclear and mitochondrial DNA synthesis and repair. This raises the formal possibility that inhibitors of HIV RT might inhibit cellular polymerases, resulting in cellular toxicity. In particular, inhibition of polymerase gamma has the potential to result in mitochondrial toxicity. The ability of Compound I and Compound III to inhibit cellular DNA polymerases was assessed using standard in vitro assays (Table 5).

HIV-1 W.T. (BH10) virus = assay: microbe, parasite or virus in culture; format: cell-based; settings: for Fold Change, W.T.: Table 13, MT-2
Text: The HIV-1 strains used were BH10, NL4-3 and IIIB: the cell lines were U-937 cells (human monocytes derived from a histiocytic lymphoma); MOLT-4 cells (a human T lymphoblastic leukemia cell line); H-9 cells (human lymphoblastic T cells); and MT-2 and MT-4 human leukemia T cells.

CYP2C8 = molecular target: T2, CYP2C8 (Homo sapiens, UniProt P10632); assay: Human liver microsomal CYP450 inhibition, CYP2C8; settings: for Type of inhibition, CYP2C8 (Paclitaxel): human liver microsomes; for IC50: human, pooled human liver microsomes, probe paclitaxel
T2 sequence (P10632 1-490): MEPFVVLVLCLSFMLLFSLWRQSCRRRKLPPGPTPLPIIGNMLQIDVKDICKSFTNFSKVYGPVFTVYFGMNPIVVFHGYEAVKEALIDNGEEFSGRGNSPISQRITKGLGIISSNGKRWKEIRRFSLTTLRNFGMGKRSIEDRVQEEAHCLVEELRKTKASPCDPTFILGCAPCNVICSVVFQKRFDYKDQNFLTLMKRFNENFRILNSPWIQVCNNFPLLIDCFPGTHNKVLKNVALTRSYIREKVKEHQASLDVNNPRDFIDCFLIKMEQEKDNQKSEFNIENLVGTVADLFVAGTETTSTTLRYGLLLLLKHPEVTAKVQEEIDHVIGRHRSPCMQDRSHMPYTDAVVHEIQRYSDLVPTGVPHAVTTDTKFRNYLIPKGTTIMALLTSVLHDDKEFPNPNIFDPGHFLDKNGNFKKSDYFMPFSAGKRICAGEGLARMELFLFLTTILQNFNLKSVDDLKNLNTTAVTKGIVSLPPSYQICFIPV
Experimental: In addition, the type of inhibition was also evaluated.
Enzyme kinetic studies of cytochrome P450 isozyme inhibition were conducted using human liver microsomes.
Probe substrate for 2C8 was paclitaxel, probe substrate for 2C9 was diclofenac and for 3A4 probe substrates were midazolam and testosterone.

[2] = tested on: HIV-1 BH10 K103N mutant virus; assay: microbe, parasite or virus in culture; format: cell-based; settings: for Fold Change, K103N: Table 9, CPE
Experimental: The activity of the compounds was also assessed with the same virus and cell type using a different assay readout based on cytopathic effect (CPE).
MT-4 cells (Source: NIH Catalog #120) were seeded onto 96-well cell culture plates (1×10^4 cells per well in 50 μL).
The final DMSO concentration in the assay was 0.5% in 120 μL. Cell cultures were then incubated at 37° C./5% CO2 for 4 days. Then, Cell Titer 96 AQueous One Solution Cell Proliferation Assay (Promega) was used to measure cell viability. Briefly, the One Solution Reagent was added directly to culture wells (20 μL/well), incubated for 5 hours, and the absorbance was recorded at 492 nm using the Sunrise Tecan Spectrophotometer.
The EC50 values were determined from the percent inhibition versus concentration data using a sigmoidal non-linear regression analysis based on four parameters with Tecan Magellan software.

[3] = Human immunodeficiency virus 1, MT2, read-out: Average EC50 Values ± Standard Deviation, W.T. (BH10)
[4] = Human immunodeficiency virus 1, MT2, read-out: Average EC50 Values ± Standard Deviation, host MT-2, virus BH10
[5] = Human immunodeficiency virus 1, MT4, read-out: Average EC50 Values ± Standard Deviation, K103N
[6] = Human immunodeficiency virus 1, MT4, read-out: EC50, K103N
[7] = Table 5, read-out: Average IC50 Values ± Standard Deviation, DNA Pol Alpha

SMILES	IC50 ([1]; Average IC50 Values ± Standard Deviation, DNA Pol Alpha, Table 5) [nM]	IC50 ([1]; Mean IC50 Values ± Standard Deviation, DNA Pol Alpha, Table 6, N=4) [nM]	Average IC50 Values ± Standard Deviation, DNA Pol Alpha ([1]; Table 5)	EC50 (HIV-1 W.T. (BH10) virus; [3]) [nM]	EC50 (HIV-1 W.T. (BH10) virus; [4]) [nM]	Fold Change, W.T. (HIV-1 W.T. (BH10) virus) [fold]	Ki (CYP2C8) [nM]	Type of inhibition, CYP2C8 (Paclitaxel) (CYP2C8)	Type of inhibition, CYP2C8 (Paclitaxel) (CYP2C8; listed as compound I)	IC50 (CYP2C8) [nM]	EC50 [2, 5] [nM]	EC50 [2, 6] [nM]	Fold Change, K103N [2] [fold]	IC50 [1, 7] [nM]	Type of inhibition, CYP2C8 (Paclitaxel) (CYP2C8; listed as compound III)	IC50 ([1]; Table 6, N=4, read-out: Mean IC50 Values ± Standard Deviation, DNA Pol Alpha) [nM]
CO[P@](=O)(c1cc(C)cc(/C=C/C#N)c1)c1c(C(N)=O)[nH]c2ccc(Cl)c(F)c12 [Compound I, (2-Carbamoyl-5-chloro-4-fluoro-1H-indol-3-yl)-[3-((E)-2-cyano-vinyl)-5-methyl-phenyl]-(R)-phosphinic acid methyl ester]	146000 ± 44500	146000 ± 44500	did not reach an IC50	0.9 ± 0.6	0.9 ± 0.6	1	1100	competitive inhibition	competitive inhibition	< 10000	0.3 ± 0.1	0.26 ± 0.057	1.0 ± 0.3	–	–	–
CO[P@](=O)(c1cc(C)cc(/C=C/C#N)c1)c1c(C(N)=O)[nH]c2ccc(Cl)cc12 [Compound III, (2-Carbamoyl-5-chloro-1H-indol-3-yl)-[3-((E)-2-cyano-vinyl)-5-methyl-phenyl]-(R)-phosphinic acid methyl ester]	–	–	did not reach an IC50	1.1 ± 0.4	1.1 ± 0.4	1	660	competitive inhibition	–	< 10000	0.1 ± 0.1	0.14 ± 0.052	1.1 ± 0.3	159000 ± 84300	competitive inhibition	–
O=C1Nc2ccc(Cl)cc2C(C#CC2CC2)(C(F)(F)F)O1 (stereo not shown) [EFV, 6-chloro-4-cyclopropylethynyl-4-trifluoromethyl-1,4-dihydro-2H-3,1-benzoxazin-2-one, reference compound]	–	–	did not reach an IC50	0.8 ± 0.2	0.8 ± 0.2	–	–	–	–	–	41 ± 13	–	–	109000 ± 40900	–	109000 ± 40900
